Patent publication US6376526B1, “Triazole antifungal agents” (Pfizer Inc., priority 1996, dated 2002)

Assays:
Candida albicans = assay: in vivo activity against acute systemic candidosis in immune-normal mice; settings: dose protecting 50% of mice on day 2 post-infection; mice infected i.v. with Candida albicans; oral dosing 1, 4 and 24 hours post-infection
Description: The in vivo evaluation of the compounds can be carried out at a series of dose levels by intraperitoneal or intravenous injection, or by oral administration, to mice or rats which are inoculated with, e.g. a strain of Candida albicans, Aspergillus fumigatus or Cryptococcus neoformans. Activity may be based on the number of survivors from a treated group of mice after the death of an untreated group of mice.
For Candida spp. infection models the dose level at which the compound provides 50% protection against the lethal effect of the infection (PD50) is also assessed.
The Table below illustrates the in vivo activity against acute systemic candidosis in immune-normal mice for a selection of the compounds of the invention.
Mice were infected intravenously with Candida albicans in order to establish a systemic infection (all untreated control mice died by 2 days post-infection). Compound efficacy was assessed on the basis of survival after oral dosing (0.1-5 mg/kg; 1, 4 and 24 hours post-infection) and was measured as the dose protecting 50% of mice on day 2 post-infection.

[1] = 7-day toxicity study in rats; type: in vivo; settings: 30 mg/kg p.o., o.d., 7 days

| SMILES | PD50 (Candida albicans) | adverse effects in 7-day toxicity study [1] |
| --- | --- | --- |
| C[C@@H](c1ccc(/C=C/n2ccnc2)cc1)[C@](O)(Cn1cncn1)c1ccc(F)cc1F (relative stereo) [Example 5, Trans-(2R,3S/2S,3R)-1-(1,2,4-triazol-1-yl)-2-(2,4-difluorophenyl)-3-{4-[2-(imidazol-1-yl)ethenyl]phenyl}butan-2-ol] | 0.18 mg/kg | – |
| C[C@@H](c1ccc(/C=C/c2ccnn2C)cc1)[C@](O)(Cn1cncn1)c1ccc(F)cc1F [Example 1, Trans-(2R,3S)-1-(1,2,4-triazol-1-yl)-2-(2,4-difluorophenyl)-3-{4-[2-(1methylpyrazol-5-yl)ethenyl]phenyl}butan-2-ol] | <0.10 mg/kg | no adverse effects |
| C[C@@H](c1ccc(/C=C/c2c[nH]nn2)cn1)[C@](O)(Cn1cncn1)c1ccc(F)cc1F (relative stereo) [Example 10, Trans-(2R,3S/2S,3R)-1-(1,2,4-triazol-1-yl)-2-(2,4-difluorophenyl)-3-{5-[2-(1,2,3-triazol-4-yl)ethenyl]pyrid-2-yl}butan-2-ol] | 0.32 mg/kg | – |
| C[C@@H](c1ccc(/C=C/C(C)(C)O)cn1)[C@](O)(Cn1cncn1)c1ccc(F)cc1F (relative stereo) [Example 9, Trans-(2R,3S/2S,3R)-1-(1,2,4-triazol-1-yl)-2-(2,4-difluorophenyl)-3-[5-{3-hydroxy-3-methylbut-1-en-1-yl}pyrid-2-yl]butan-2-ol] | 0.18 mg/kg | – |
